Data reported in the NIST ThermoML archive (doi:10.1016/j.tca.2016.04.001).

Experiments:
[1] = xn = mol fraction of the nth substance listed; conditions: 87 kPa, Liquid, Vibrating tube method
[2] = 87 kPa, Liquid, Vibrating tube method

CC(=O)OC(C)(C)C [1,1-dimethylethyl ethanoate] + OC(CCl)CCl
[1], x2 = 0
Conditions	mass density [kg/m3]
293.15 K	866.95
298.15 K	861.41
303.15 K	855.79
308.15 K	850.17
313.15 K	844.49

CC(=O)OC(C)(C)C [1,1-dimethylethyl ethanoate] + OCc1ccccc1
mass density [kg/m3], [1]
Conditions	293.15 K	298.15 K	303.15 K	308.15 K	313.15 K
x2 = 0	866.95	861.41	855.79	850.17	844.49
x2 = 0.047	874.64	869.18	863.68	858.15	852.61
x2 = 0.0925	882.2	876.83	871.43	865.99	860.52
x2 = 0.2017	900.32	895.16	889.77	884.75	879.5
x2 = 0.3001	916.98	912	906.99	901.96	896.9
x2 = 0.4	934.1	929.3	924.47	919.62	914.74
x2 = 0.4999	951.7	947.08	942.4	937.73	933.04
x2 = 0.6002	969.63	965.17	960.68	956.18	951.66
x2 = 0.7027	988.3	984.07	979.75	975.42	971.06
x2 = 0.7996	1006.55	1002.4	998.24	994.06	989.87
x2 = 0.9059	1026.81	1022.83	1018.83	1014.82	1010.79
x2 = 0.9528	1035.96	1032.06	1028.11	1024.17	1020.21

OC(CCl)CCl [1,3-dichloro-2-propanol]
[2]
Conditions	mass density [kg/m3]
293.15 K	1362.66
298.15 K	1356.74
303.15 K	1350.72
308.15 K	1344.71
313.15 K	1338.65

OC(CCl)CCl [1,3-dichloro-2-propanol] + C=COC(C)=O
mass density [kg/m3], [1]
Conditions	293.15 K	298.15 K	303.15 K	308.15 K	313.15 K
x1 = 0.0481	954.28	947.93	941.53	935.07	928.57
x1 = 0.1022	978.78	972.47	966.08	959.68	953.24
x1 = 0.2021	1023.42	1017.18	1010.91	1004.52	998.25
x1 = 0.2995	1066.61	1060.46	1054.25	1048	1041.72
x1 = 0.3953	1108.66	1102.54	1096.39	1090.21	1083.96
x1 = 0.5002	1154.23	1148.18	1142.09	1135.96	1129.81
x1 = 0.6003	1197.18	1191.17	1185.12	1179.04	1172.93
x1 = 0.6999	1239.3	1233.34	1227.29	1221.25	1215.17
x1 = 0.8007	1281.45	1275.5	1269.5	1263.47	1257.41
x1 = 0.9014	1322.94	1317	1311	1304.98	1298.92
x1 = 0.9524	1343.43	1337.48	1331.49	1325.46	1319.4
x1 = 1	1362.66	1356.74	1350.72	1344.71	1338.65

OC(CCl)CCl [1,3-dichloro-2-propanol] + CC(=O)OC(C)(C)C
mass density [kg/m3], [1]
Conditions	293.15 K	298.15 K	303.15 K	308.15 K	313.15 K
x1 = 0.0496	885.18	879.67	874.08	868.47	862.83
x1 = 0.0948	902.23	896.7	891.14	885.54	879.9
x1 = 0.2007	943.76	938.26	932.7	927.12	921.51
x1 = 0.3003	985.2	979.7	974.18	968.6	963
x1 = 0.4001	1029.14	1023.63	1018.09	1012.51	1006.91
x1 = 0.4991	1075.36	1069.84	1064.27	1058.68	1053.06
x1 = 0.6003	1125.61	1120.05	1114.46	1108.83	1103.17
x1 = 0.7009	1179.16	1173.55	1167.9	1162.21	1156.49
x1 = 0.8013	1236.36	1230.68	1224.95	1219.17	1213.37
x1 = 0.9032	1298.89	1293.07	1287.22	1281.34	1275.42
x1 = 0.9507	1329.66	1323.78	1317.85	1311.9	1305.91
x1 = 1	1362.66	1356.74	1350.72	1344.71	1338.65

OC(CCl)CCl [1,3-dichloro-2-propanol] + CCOC(C)=O
mass density [kg/m3], [1]
Conditions	293.15 K	298.15 K	303.15 K	308.15 K	313.15 K
x1 = 0.0442	921.07	915.01	909.02	902.88	896.68
x1 = 0.0967	945.13	939.12	933.16	927.05	921.2
x1 = 0.1971	991	985	979.1	972.97	967.2
x1 = 0.3019	1039.05	1033.15	1027.3	1021.22	1015.41
x1 = 0.3939	1081.4	1075.55	1069.64	1063.7	1057.83
x1 = 0.4995	1130.18	1124.35	1118.48	1112.58	1106.65
x1 = 0.6006	1176.92	1171.1	1165.25	1159.37	1153.45
x1 = 0.6993	1222.62	1216.83	1210.95	1205.06	1199.14
x1 = 0.8006	1269.78	1263.96	1258.07	1252.15	1246.2
x1 = 0.9011	1316.79	1310.89	1304.97	1299	1293.1
x1 = 0.953	1340.9	1334.99	1329.01	1323.02	1316.98
x1 = 1	1362.66	1356.74	1350.72	1344.71	1338.65

OCc1ccccc1 [benzenemethanol]
[2]
Conditions	mass density [kg/m3]
293.15 K	1045.21
298.15 K	1041.38
303.15 K	1037.5
308.15 K	1033.63
313.15 K	1029.71

OCc1ccccc1 [benzenemethanol] + C=COC(C)=O
[1], x1 = 1
Conditions	mass density [kg/m3]
293.15 K	1045.21
298.15 K	1041.38
303.15 K	1037.5
308.15 K	1033.63
313.15 K	1029.71

OCc1ccccc1 [benzenemethanol] + CC(=O)OC(C)(C)C
[1], x1 = 1
Conditions	mass density [kg/m3]
293.15 K	1045.21
298.15 K	1041.38
303.15 K	1037.5
308.15 K	1033.63
313.15 K	1029.71

OCc1ccccc1 [benzenemethanol] + CCOC(C)=O
mass density [kg/m3], [1]
Conditions	293.15 K	298.15 K	303.15 K	308.15 K	313.15 K
x1 = 0.0452	909.04	903.11	897.12	891.1	885.03
x1 = 0.1047	919.57	913.81	908.02	902.18	896.3
x1 = 0.2008	935.91	930.43	924.91	919.36	913.77
x1 = 0.3043	952.73	947.53	942.29	937.02	931.72
x1 = 0.4	967.5	962.53	957.53	952.49	947.43
x1 = 0.5017	982.41	977.66	972.89	968.08	963.26
x1 = 0.6006	996.27	991.73	987.15	982.56	977.95
x1 = 0.7013	1009.5	1005.14	1000.77	996.37	991.97
x1 = 0.8074	1023	1018.86	1014.67	1010.47	1006.26
x1 = 0.9042	1034.66	1030.64	1026.67	1022.63	1018.59
x1 = 0.9537	1040.08	1036.17	1032.23	1028.28	1024.32
x1 = 1	1045.21	1041.38	1037.5	1033.63	1029.71

CCOC(C)=O [ethyl acetate] + OC(CCl)CCl
[1], x2 = 0
Conditions	mass density [kg/m3]
293.15 K	900.71
298.15 K	894.65
303.15 K	888.52
308.15 K	882.35
313.15 K	876.12

CCOC(C)=O [ethyl acetate] + OCc1ccccc1
[1], x2 = 0
Conditions	mass density [kg/m3]
293.15 K	900.71
298.15 K	894.65
303.15 K	888.52
308.15 K	882.35
313.15 K	876.12

C=COC(C)=O [vinyl acetate] + OC(CCl)CCl
[1], x2 = 0
Conditions	mass density [kg/m3]
293.15 K	932.41
298.15 K	926.01
303.15 K	919.56
308.15 K	913.07
313.15 K	906.52

C=COC(C)=O [vinyl acetate] + OCc1ccccc1
mass density [kg/m3], [1]
Conditions	293.15 K	298.15 K	303.15 K	308.15 K	313.15 K
x2 = 0	932.41	926.01	919.56	913.07	906.52
x2 = 0.0504	940.17	934.2	928.1	922	915.06
x2 = 0.0954	947.04	941.4	935.7	930	922.62
x2 = 0.1987	961.08	955.4	949.66	943.89	938.08
x2 = 0.2999	974.18	968.88	963.51	958.06	952.57
x2 = 0.3947	985.63	980.52	975.38	970.21	965
x2 = 0.5005	997.61	992.77	987.91	983.01	978.09
x2 = 0.5991	1008.19	1003.62	998.97	994.32	989.64
x2 = 0.7047	1019.12	1014.77	1010.36	1005.95	1001.51
x2 = 0.8037	1028.4	1024.23	1020.02	1015.85	1011.55
x2 = 0.9067	1037.37	1033.39	1029.37	1025.33	1021.27
